Laboratory results as given in US12053459B2, “CDK2 inhibitors and methods of using the same” (Cedilla Therapeutics, Inc., priority 2021, dated 2024).

How the values were obtained:
[1] = tested on: Kuramochi cells; assay: BrdU cell proliferation assay (colorimetric ELISA), Kuramochi cells; type: cell-based; settings: class symbols A-D
Method in brief: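 Kuramochi cells (2,000/well, with Kuramochi RB^KO cells as a specificity control) were treated with a 4-point, 3-fold dilution series made from 10 mM compound stocks and left for 4 days at 37 °C. Proliferation was measured by 1 h BrdU labelling, then anti-BrdU peroxidase ELISA read at 450 nm. Signals were background-subtracted and normalized to DMSO wells.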

[2] = target: CDK2/Cyclin E1(14-475) (Homo sapiens, UniProt P24941); assay: Caliper LabChip EZ Reader mobility shift assay, inhibition of CDK2/Cyclin E1 activity; type: biochemical; settings: class symbols A-D
Method in brief: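 CDK2/Cyclin E1(14-475) pre-incubated 30 min with compound and ATP, then reaction started with 5-FAM-QSPKKG-CONH2; final 2.5 nM enzyme, 100 μM ATP, 1.5 μM peptide, HEPES pH 7.5. Stopped with EDTA after 100 min; substrate/product conversion by capillary electrophoresis mobility shift, IC50 from four-parameter fit.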

| SMILES | IC50 [2] | IC50 [1] |
| --- | --- | --- |
| COc1cc(C(=O)N2CC3CN(C(=O)Cc4c[nH]c5cc(Cl)ccc45)CC(C(=O)NC(CCCc4ccccc4)c4ncco4)C3C2)ccc1OC(C)C (centres unmarked) [I-149] | 0.5 to 5 µM | > 10 µM |
| CNC(=O)[C@H](CCCc1ccccc1)NC(=O)C1CN(C(=O)Cc2c[nH]c3cc(Cl)ccc23)CC2CN(C(=O)c3ccc4c(N)n[nH]c4c3)CC21 (some centres unmarked) [I-65] | > 10 µM | > 10 µM |
| CNC(=O)[C@H](CCCc1ccccc1)NC(=O)C1CN(C(=O)Cc2c[nH]c3cc(Cl)ccc23)CC2CN(C(=O)c3ccc(OCCC4CC4)c(OC)c3)CC21 (some centres unmarked) [I-9] | 5 to 10 µM | > 10 µM |
| CNC(=O)[C@H](CCCC1CCCCC1)NC(=O)C1CN(C(=O)Cc2c[nH]c3cc(Cl)ccc23)CC2CN(C(=O)c3ccc(OC(C)C)c(OC)c3)CC21 (some centres unmarked) [I-113] | 0.5 to 5 µM | > 10 µM |
| CNC(=O)[C@H](CCCc1ccccc1)NC(=O)C1CN(C(=O)c2ccc3ncccc3c2)CC2CN(C(=O)c3ccc(OC(C)C)c(OC)c3)CC21 (some centres unmarked) [I-158] | > 10 µM | > 10 µM |
| CNC(=O)[C@H](CCCc1ccccc1)NC(=O)C1CN(C(=O)Cc2cc[nH]n2)CC2CN(C(=O)c3ccc(OC(C)C)c(OC)c3)CC21 (some centres unmarked) [I-198] | > 10 µM | > 10 µM |
| CNC(=O)[C@H](CCCc1ccccc1)NC(=O)C1CN(C(=O)Cc2c[nH]c3cc(Cl)ccc23)CC2CN(C(=O)c3ccc(-c4ccncc4)cc3)CC21 (some centres unmarked) [I-14] | > 10 µM | > 10 µM |
| CNC(=O)[C@H](CCCc1ccccc1)NC(=O)C1CN(C(=O)Cc2c[nH]c3cc(Cl)ccc23)CC2CN(C(=O)c3ccc4c(c3)CNC4=O)CC21 (some centres unmarked) [I-45] | > 10 µM | > 10 µM |
| CNC(=O)[C@@H](CCCC1CCCCCC1)NC(=O)C1CN(C(=O)Cc2c[nH]c3cc(Cl)ccc23)CC2CN(C(=O)c3ccc(OC(C)C)c(OC)c3)CC21 (some centres unmarked) [I-141] | > 10 µM | 5 to 10 µM |
| CNC(=O)[C@H](CCCc1ccccc1)NC(=O)C1CN(C(=O)Cc2c[nH]c3cc(Cl)ccc23)CC2CN(C(=O)c3cc(C)n(C)n3)CC21 (some centres unmarked) [I-39] | > 10 µM | > 10 µM |
| CNC(=O)[C@H](CCCc1ccccc1)NC(=O)C1CN(C(=O)c2coc(Cl)n2)CC2CN(C(=O)c3ccc(OC(C)C)c(OC)c3)CC21 (single isomer, unassigned) [I-232] | > 10 µM | > 10 µM |
| CNC(=O)[C@H](CCCc1ccccc1)NC(=O)C1CN(C(=O)Cc2c[nH]c3cc(Cl)ccc23)CC2CN(C(=O)c3cnn(C)c3)CC21 (some centres unmarked) [I-55] | > 10 µM | > 10 µM |
| CNC(=O)[C@H](CCCc1ccccc1)NC(=O)C1CN(C(=O)c2ccc(C#N)cn2)CC2CN(C(=O)c3ccc(OC(C)C)c(OC)c3)CC21 (some centres unmarked) [I-208] | > 10 µM | > 10 µM |
| CNC(=O)[C@H](CCCc1ccccc1)NC(=O)C1CN(C(=O)Cc2c[nH]c3cc(Cl)ccc23)CC2CN(C(=O)c3cc4ccccc4cn3)CC21 (some centres unmarked) [I-37] | > 10 µM | > 10 µM |
| COc1cc(C(=O)N2CC3CN(C(=O)Cc4c[nH]c5cc(Cl)ccc45)CC(C(=O)NC4CCCN(C(=O)Cc5ccccc5)C4)C3C2)ccc1OC(C)C (centres unmarked) [I-90] | > 10 µM | > 10 µM |
| CNC(=O)[C@H](CCCc1ccccc1)NC(=O)C1CN(C(=O)Cc2c[nH]c3ccccc23)CC2CN(C(=O)c3ccc(OC(C)C)c(OC)c3)CC21 (some centres unmarked) [I-223] | > 10 µM | > 10 µM |
| CNC(=O)[C@H](CCCc1ccccc1)NC(=O)C1CN(C(=O)Cc2c[nH]c3cc(Cl)ccc23)CC2CN(C(=O)c3ccc(OC(C)C)c(F)c3)CC21 (some centres unmarked) [I-46] | 0.5 to 5 µM | > 10 µM |
| CNC(=O)[C@H](CCCc1ccccc1)NC(=O)C1CN(C(=O)c2cn3ccncc3n2)CC2CN(C(=O)c3ccc(OC(C)C)c(OC)c3)CC21 (single isomer, unassigned) [I-195] | > 10 µM | > 10 µM |

The next lines start with results.

| IC50 [2] | SMILES | IC50 [1] |
| --- | --- | --- |
| 0.5 to 5 µM | COc1cc(C(=O)N2CC3CN(C(=O)Cc4c[nH]c5cc(Cl)ccc45)CC(C(=O)N[C@@H](C)C(=O)NCCCc4ccccc4)C3C2)ccc1OC(C)C (some centres unmarked) [I-98] | > 10 µM |
| 0.5 to 5 µM | CNC(=O)[C@@H](NC(=O)C1CN(C(=O)Cc2c[nH]c3cc(Cl)ccc23)CC2CN(C(=O)c3ccc(OC4CC4)cc3)CC21)[C@@H](C)OCC1CCCCC1 (stereo partly drawn) [I-242, 5-(2-(6-chloro-1H-indol-3-yl)acetyl)-N-((2S,3R)-3-(cyclohexylmethoxy)-1-(methylamino)-1-oxobutan-2-yl)-2-(4-cyclopropoxybenzoyl)octahydro-1H-pyrrolo[3,4-c]pyridine-7-carboxamide] | > 10 µM |
| > 10 µM | CNC(=O)[C@H](CCCc1ccccc1)NC(=O)C1CN(C(=O)c2ccc(C)cn2)CC2CN(C(=O)c3ccc(OC(C)C)c(OC)c3)CC21 (some centres unmarked) [I-184] | > 10 µM |
| > 10 µM | CNC(=O)[C@H](CCCc1ccccc1)NC(=O)C1CN(C(=O)Cc2c[nH]c3cc(Cl)ccc23)CC2CN(C(=O)c3cccc(CO)n3)CC21 (some centres unmarked) [I-20] | > 10 µM |
| > 10 µM | CNC(=O)[C@H](CCCc1ccccc1)NC(=O)C1CN(C(=O)Cc2c[nH]c3ncccc23)CC2CN(C(=O)c3ccc(OC(C)C)c(OC)c3)CC21 (some centres unmarked) [I-179] | > 10 µM |
| > 10 µM | CNC(=O)[C@H](CCCc1ccccc1)NC(=O)C1CN(C(=O)c2cccc(-c3cccnc3)c2)CC2CN(C(=O)c3ccc(OC(C)C)c(OC)c3)CC21 (some centres unmarked) [I-210] | > 10 µM |
| > 10 µM | COc1cc(C(=O)N2CC3CN(C(=O)Cc4c[nH]c5cc(Cl)ccc45)CC(C(=O)NC4CCCN(C(=O)c5ccccc5)C4)C3C2)ccc1OC(C)C (centres unmarked) [I-89] | > 10 µM |
| 0.5 to 5 µM | CNC(=O)[C@H](CCCc1cccc2[nH]nnc12)NC(=O)C1CN(C(=O)Cc2c[nH]c3cc(Cl)ccc23)CC2CN(C(=O)c3ccc(OC(C)C)c(OC)c3)CC21 (some centres unmarked) [I-139] | > 10 µM |
| > 10 µM | CNC(=O)[C@H](CCCc1ccccc1)NC(=O)C1CN(C(=O)c2cc(C)[nH]n2)CC2CN(C(=O)c3ccc(OC(C)C)c(OC)c3)CC21 (some centres unmarked) [I-183] | > 10 µM |
| > 10 µM | CNC(=O)[C@H](CCCc1ccccc1)NC(=O)C1CN(C(=O)Cc2c[nH]c3cc(Cl)ccc23)CC2CN(C(=O)c3cncc(C)n3)CC21 (some centres unmarked) [I-60] | > 10 µM |
| > 10 µM | C[C@@H](OCc1ccc(F)cc1)[C@H](NC(=O)C1CN(C(=O)Cc2c[nH]c3cc(Cl)ccc23)CC2CN(C(=O)c3ccc(OC4CC4)cc3)CC21)C(N)=O (some centres unmarked) [I-244] | > 10 µM |
| 0.5 to 5 µM | CNC(=O)[C@H](CCCc1cccc(O)c1)NC(=O)C1CN(C(=O)Cc2c[nH]c3cc(Cl)ccc23)CC2CN(C(=O)c3ccc(OC(C)C)c(OC)c3)CC21 (single isomer, unassigned) [I-153] | > 10 µM |
| > 10 µM | CNC(=O)[C@H](CCCc1ccccc1)NC(=O)C1CN(C(=O)Cc2c[nH]c3cc(Cl)ccc23)CC2CN(C(=O)c3ccc(NC(=O)C4CC4)c(OC)c3)CC21 (some centres unmarked) [I-54] | > 10 µM |
| > 10 µM | CNC(=O)[C@H](NC(=O)C1CN(C(=O)Cc2c[nH]c3cc(Cl)ccc23)CC2CN(C(=O)c3ccc(OC(C)C)c(OC)c3)CC21)[C@@H](C)OCC1CCCCC1 (some centres unmarked) [I-108] | > 10 µM |
| 0.5 to 5 µM | CNC(=O)[C@H](CCCc1ccccc1O)NC(=O)C1CN(C(=O)Cc2c[nH]c3cc(Cl)ccc23)CC2CN(C(=O)c3ccc(OC(C)C)c(OC)c3)CC21 (some centres unmarked) [I-127] | > 10 µM |
| > 10 µM | CNC(=O)[C@H](CCCc1ccccc1)NC(=O)C1CN(C(=O)Cc2c[nH]c3cc(Cl)ccc23)CC2CN(C(=O)c3cn4ccncc4n3)CC21 (some centres unmarked) [I-40] | > 10 µM |
